The subject of test [1] is Staphylococcus aureus ATCC29213. Put plainly: MIC determination in broth microdilution assay. On the technique in general: In broth dilution the organism is exposed to a series of concentrations in liquid medium.
The test system of test [2] is Staphylococcus aureus ATCC33591(resistant to methicillin). As to the kind of experiment: MIC determination in broth microdilution assay.
In test [3] the test system is Enterococcus faecalis ATCC29212. Put plainly: MIC determination in broth microdilution assay.
For test [4], the system named is Enterococcus faecium #17501 (vancomycin-resistant clinical isolate). Put plainly: MIC determination in broth microdilution assay.
The subject of test [5] is Streptococcus pneumoniae #998 (clinical isolate). Put plainly: MIC determination in broth microdilution assay.
Test [6] relates to Eschericia coli ATCC25922. As to the kind of experiment: MIC determination in broth microdilution assay. As to conditions: for MIC: G: Eschericia coli ATCC25922.
The subject of a further test is Eschericia coli ESS. As to the kind of experiment: MIC determination in broth microdilution assay.
Test [7] concerns panel of 10 different non-fastidious bacteria. As to the kind of experiment: Screening against panel of non-fastidious bacteria. The conditions noted are these: Gram-positive pathogens.
In a further test the test system is L. major promastigotes. Put plainly: Leishmania promastigote assay. The conditions noted are these: L. major.
Test [8] concerns Plasmodium falciparum 3D7. As to the kind of experiment: Plasmodium falciparum assay. It counts as cell-based. As to conditions: Plasmodium falciparum 3D7 (Table 2); read-out: IC50.
Setting [9] is: A: Staphylococcus aureus ATCC29213.
Where [10] appears, read: B: Staphylococcus aureus ATCC33591(resistant to methicillin).
Where [11] appears, read: D: Enterococcus faecalis ATCC29212.
The mark [12] stands for this setting: E: Enterococcus faecium #17501 (vancomycin-resistant).
The mark [13] stands for this setting: F: Streptococcus pneumoniae #998.

Structures are written as SMILES. Values after ≈ are worked out from the molar mass of the structure shown. Where two headings read alike, the source gives them in different places.

The MIC is the lowest concentration that inhibits growth of the organism. Regarding `COc1ccc(C(=O)/C=C/c2cc(C(C)(C)C)ccc2OCCN(C)C)c(F)c1` [Compound C004, (E)-3-[5-tert-Butyl-2-(2-dimethylamino-ethoxy)-phenyl]-1-(2-fluoro-4-methoxy-phenyl)-propenone], the MIC stood at 9.4 µM (≈ 3.76 µg/mL) in test [1] (setting [9]); 9.4 µM (≈ 3.76 µg/mL) in [2] (setting [10]); 18.8 µM (≈ 7.51 µg/mL) in [3] (setting [11]); 18.8 µM (≈ 7.51 µg/mL) in test [4] (setting [12]); 18.8 µM (≈ 7.51 µg/mL) in [5] (setting [13]); 75.0 µM (≈ 30 µg/mL) in test [6]. The compound also came in with an MIC in the test on Eschericia coli ESS (H: Eschericia coli ESS) of 9.4 µM (≈ 3.76 µg/mL). The “potency against Gram-positive pathogens in comparison with Licochalcone A” value in test [7] is given as “increased potency”.
The term IC50 denotes the concentration at which inhibition is half-maximal. In turn, `COc1ccc(C(=O)/C=C/c2cc(-c3ccccc3)ccc2OCCN(C)C)c(F)c1` [Compound C011, (E)-3-[4-(2-Dimethylamino-ethoxy)-biphenyl-3-yl]-1-(2-fluoro-4-methoxy-phenyl)-propenone] had an IC50 in the test on L. major promastigotes of 100 nM.
Regarding `Cc1ccccc1-c1ccc(OCCN(C)C)c(/C=C/C(=O)c2ccccc2CN2CCN(C)CC2)c1` [Compound C032, (E)-3-[4-(2-Dimethylamino-ethoxy)-2′-methyl-biphenyl-3-yl]-1-[2-(4-methyl-piperazin-1-ylmethyl)-phenyl]-propenone], the figures for the IC50 (in test [8]; in the test on L. major promastigotes) were 500 nM and 700 nM, respectively.
With `CCCc1cc(/C=C/C(=O)c2ccc(OC)cc2F)c(OCCN(C)C)cc1O` [Compound C039, (E)-3-[2-(2-Dimethylamino-ethoxy)-4-hydroxy-5-propyl-phenyl]-1-(2-fluoro-4-methoxy-phenyl)-propenone], the MIC in test [1] (setting [9]) stood at 9.4 µM (≈ 3.77 µg/mL); in test [2] (setting [10]), 18.8 µM (≈ 7.55 µg/mL); in test [3] (setting [11]) it was 18.8 µM (≈ 7.55 µg/mL); in [4] (setting [12]), 18.8 µM (≈ 7.55 µg/mL); in test [5] (setting [13]), 18.8 µM (≈ 7.55 µg/mL); in test [6], 75.0 µM (≈ 30.1 µg/mL). This compound registered an MIC in the test with Eschericia coli ESS (H: Eschericia coli ESS) of 9.4 µM (≈ 3.77 µg/mL).
For `Cc1cc(C)cc(-c2ccc(OCCN(C)C)c(/C=C/C(=O)c3ccccc3OC(C)C)c2)c1` [Compound C067, (E)-3-[4-(2-Dimethylamino-ethoxy)-3′,5′-dimethyl-biphenyl-3-yl]-1(2-isopropoxy-phenyl)-propenone], the MIC in [1] (setting [9]) turned out to be 4.7 µM (≈ 2.15 µg/mL); in test [2] (setting [10]), 4.7 µM (≈ 2.15 µg/mL); in test [3] (setting [11]) it was 4.7 µM (≈ 2.15 µg/mL); in [4] (setting [12]), 4.7 µM (≈ 2.15 µg/mL); in test [5] (setting [13]), 18.8 µM (≈ 8.6 µg/mL); in the test on Eschericia coli ESS (H: Eschericia coli ESS) it was 18.8 µM (≈ 8.6 µg/mL).
On to `Cc1cc(C)cc(-c2ccc(OCCN(C)C)c(CCC(=O)c3ccc(F)cc3)c2)c1` [Compound C072, 3-[4-(2-Dimethylamino-ethoxy)-3′,5′-dimethyl-biphenyl-3-yl]-1-(4-fluoro-phenyl)-propan-1-one], for which the MIC in test [1] (Staphylococcus aureus, ATCC29213) was determined as 9.4 µM (≈ 3.94 µg/mL); in test [2] (Staphylococcus aureus, ATCC33591) it was 18.8 µM (≈ 7.89 µg/mL); in [3] (Enterococcus faecalis, ATCC29212), 18.8 µM (≈ 7.89 µg/mL); in test [4] (Enterococcus faecium), 18.8 µM (≈ 7.89 µg/mL); in test [5] (Streptococcus pneumoniae), 37.5 µM (≈ 15.7 µg/mL); in the test with Eschericia coli ESS, 9.4 µM (≈ 3.94 µg/mL).
On to `Cc1cc(C)cc(-c2ccc(OCCN(C)C)c(/C=C/C(=O)c3cccc(O)c3)c2)c1` [Compound C085, (E)-3-[4-(2-Dimethylamino-ethoxy)-3′,5′-dimethyl-biphenyl-3-yl]-1-(3-hydroxy-phenyl)-propenone], for which the MIC in test [1] (setting [9]) came out at 4.7 µM (≈ 1.95 µg/mL); in test [2] (setting [10]) it was 4.7 µM (≈ 1.95 µg/mL); in test [3] (setting [11]), 4.7 µM (≈ 1.95 µg/mL); in [4] (setting [12]), 4.7 µM (≈ 1.95 µg/mL); in [5] (setting [13]), 75 µM (≈ 31.2 µg/mL); in the test on Eschericia coli ESS (H: Eschericia coli ESS), 4.7 µM (≈ 1.95 µg/mL).
For `COc1ccc(C(=O)/C=C/c2cc(-c3cc(C)cc(C)c3)ccc2OCCN(C)C)cc1CN(C)C` [Compound C090, (E)-3-[4-(2-Dimethylamino-ethoxy)-3′,5′-dimethyl-biphenyl-3-yl]-1-(3-dimethylaminomethyl-4-methoxy-phenyl)-propenone], the IC50 in test [8] turned out to be 500 nM.
As for `Cc1cc(C)cc(-c2ccc(OCCN(C)C)c(/C=C/C(=O)c3ccccc3N)c2)c1` [Compound C093, (E)-1-(2-Amino-phenyl)-3-[4-(2-dimethylamino-ethoxy)-3′,5′-dimethyl-biphenyl-3-yl]-propenone], the MIC in test [1] (setting [9]) was 4.7 µM (≈ 1.95 µg/mL); in test [2] (setting [10]) it was 4.7 µM (≈ 1.95 µg/mL); in [3] (setting [11]), 9.4 µM (≈ 3.9 µg/mL); in [4] (setting [12]), 4.7 µM (≈ 1.95 µg/mL); in [5] (setting [13]) it was 18.8 µM (≈ 7.79 µg/mL); against Eschericia coli ESS (H: Eschericia coli ESS), 4.7 µM (≈ 1.95 µg/mL).
With `Cc1cc(C)cc(-c2ccc(OCCN(C)C)c(/C=C/C(=O)c3cccc(N4CCN(C)CC4)c3)c2)c1` [Compound C103, (E)-3-[4-(2-Dimethylamino-ethoxy)-3′,5′-dimethyl-biphenyl-3-yl]-1-[3-(4-methyl-piperazin-1-yl)-phenyl]-propenone], the MIC was 4.7 µM (≈ 2.34 µg/mL) in [1] (setting [9]); 4.7 µM (≈ 2.34 µg/mL) in [2] (setting [10]); 9.4 µM (≈ 4.68 µg/mL) in test [3] (setting [11]); 9.4 µM (≈ 4.68 µg/mL) in test [4] (setting [12]); 18.8 µM (≈ 9.36 µg/mL) in test [6]; 4.7 µM (≈ 2.34 µg/mL) against Eschericia coli ESS (H: Eschericia coli ESS). Moreover, the “activity against E coli ATCC25922” value in test [6] is “high activity”. Besides, the “activity against ESS strain of E.coli” value with Eschericia coli ESS is “high activity”.
As to `Cc1cc(C)cc(-c2ccc(OCCN(C)C)c(/C=C/C(=O)c3ccccc3OCCCN(C)C)c2)c1` [Compound C104, (E)-3-[4-(2-Dimethylamino-ethoxy)-3′,5′-dimethyl-biphenyl-3-yl]-1-[2-(3-dimethylamino-propoxy)-phenyl]-propenone], the MIC in [1] (setting [9]) came out at 9.4 µM (≈ 4.71 µg/mL); in test [2] (setting [10]), 18.8 µM (≈ 9.41 µg/mL); in test [3] (setting [11]) it was 9.4 µM (≈ 4.71 µg/mL); in [4] (setting [12]), 9.4 µM (≈ 4.71 µg/mL); in [5] (setting [13]), 9.4 µM (≈ 4.71 µg/mL); in test [6], 18.8 µM (≈ 9.41 µg/mL). In addition, the MIC with Eschericia coli ESS (H: Eschericia coli ESS) amounted to 9.4 µM (≈ 4.71 µg/mL).
In the case of `CN(C)CCOc1ccc(-c2ccccc2O)cc1/C=C/C(=O)c1ccccc1CN(C)C` [Compound C131, (E)-3-[4-(2-Dimethylamino-ethoxy)-2′-hydroxy-biphenyl-3-yl]-1-(2-dimethylaminomethyl-phenyl)-propenone], the IC50 in test [8] was found to be 300 nM.
As to `Cc1cc(C)cc(-c2ccc(OCCN(C)C)c(/C=C/C(=O)c3ccc(O)c(F)c3)c2)c1` [Compound C140, (E)-3-[4-(2-Dimethylamino-ethoxy)-3′,5′-dimethyl-biphenyl-3-yl]-1-(3-fluoro-4-hydroxy-phenyl)-propenone], the midpoint of inhibition in the test with L. major promastigotes, the IC50, lay at 200 nM.
On to `Cc1cc(C)cc(-c2ccc(OCCN(C)C)c(/C=C/C(=O)c3ccc(O)cc3F)c2)c1` [Compound C156, (E)-3-[4-(2-Dimethylamino-ethoxy)-3′,5′-dimethyl-biphenyl-3-yl]-1-(2-fluoro-4-hydroxy-phenyl)-propenone], for which the IC50 in [8] was determined as 100 nM.
Regarding `Cc1cc(C)cc(-c2ccc(OCCN(C)C)c(/C=C/C(=O)c3ccc(OCCN(C)C)cc3F)c2)c1` [Compound C157, (E)-3-[4-(2-Dimethylamino-ethoxy)-3′,5′-dimethyl-biphenyl-3-yl]-1-[4-(2-dimethylamino-ethoxy)-2-fluoro-phenyl]-propenone], the MIC was determined as 4.7 µM (≈ 2.37 µg/mL) in [1] (setting [9]); 9.4 µM (≈ 4.74 µg/mL) in test [2] (setting [10]); 9.4 µM (≈ 4.74 µg/mL) in [3] (setting [11]); 9.4 µM (≈ 4.74 µg/mL) in test [4] (setting [12]); 9.4 µM (≈ 4.74 µg/mL) in test [5] (setting [13]); 18.8 µM (≈ 9.49 µg/mL) in test [6]. Besides, in the test on Eschericia coli ESS (H: Eschericia coli ESS), the MIC came out at 4.7 µM (≈ 2.37 µg/mL).

The record behind these values is patent US7423181B2, “Aminoalkoxy-functional chalcones” (Lica Pharmaceuticals A/S, priority 2002, dated 2008).
